The values that follow come from patent publication US20160243056A1, “Sustained Release Formulations Containing Methylglyoxal and Their Therapeutic Applications” (priority 2013, published 2016).

For assay [1], the system named is Glyceraldehyde-3-Phospahte Dehydrogenase. The following applies: cited from earlier work.
Assay [2] relates to sarcoma-180 cells. In words: Measurement of tumor volume, Sarcoma-180 tumour in left hind leg of mice. The note with it: bare methylglyoxal 20 mg/kg body weight/day iv, five days a week. Format: in vivo, Swiss albino female mice. Here is the method: In the present invention, effect of modified nanomethylGlyoxal, against tumor in mice, have been studied. Briefly, Swiss albino female mice aged 4-6 weeks weighing 18-20 g were taken. Each group contained four mice. Tumors were developed in the left hind leg of a mouse by intra-muscular injection of sarcoma-180 cells (approximately 2×10^6 cells in each mouse). Each set of experiment was repeated 4 times. Drug was administered to the mice intravenously, five days a week. Polymer conjugated methylglyoxal (Nano-MG) was administered intravenously at an amount of 0.4 mg/kg body weight/day. One group received bare methylglyoxal (20 mg/kg body weight/day). Drug was administered after 72 hours of inoculation of Sarcoma-180 tumour in the treated group. Treatment was continued for four weeks.

In assay [3] the test system is peritoneal macrophages. Briefly: Superoxide anion generation (production of reduced NBT) by peritoneal macrophages. Format: in vivo, mice. The note with it: bare MG 20 mg/kg body weight/day iv. Here is the method:
Values in the bracket denote dose at mg/kg body wt/day • Ehrlich ascites carcinoma (EAC) cells developed in the intraperitoneal cavity of mouse were collected in different time intervals. After washing with normal saline the cells were re-suspended in phosphate buffered saline. […] Number of Sarcoma-180 cells inoculated to each mouse was 1×10^6. The tumor bearing mice were treated with modified nano-methylglyoxal (present formulation) in normal saline through intravenous route to study the tumor growth inhibition by nano-methylglyoxal. Treatment started after 7 days of inoculation in mice intravenously with 50 μl nanoMG in solution (containing 5 μg methylglyoxal). Mice in the negative control group were similarly treated intravenously with normal saline and the positive control groups were treated intravenously with bare methylglyoxal (20 mg/kg body weight/day) in normal saline. Each group contained six mice. Each set of experiment was repeated four times. melatonin (0.25 mg/kg body weight/day), creatine (150 mg/kg body weight/day) and Ascorbic acid (50 mg/kg body weight/day) were fed orally to each mouse everyday. Treatment was given with single daily dose for consecutive 12 days. […] Treatment started after 7 days of inoculation in mice intravenously with 50 μl nanoMG in solution (containing 5 μg methylglyoxal). Treatment was continued for 20 doses (six doses per week) in 23 days. […]

Assay [4] concerns peritoneal macrophages. Briefly: Peritoneal macrophage count in treated mice. The assay is classed as in vivo. The following applies: for Peritoneal macrophage Count (×10^6): bare MG 20 mg/kg body weight/day iv. Here is the method: Values in the bracket denote dose at mg/kg body wt/day • Ehrlich ascites carcinoma (EAC) cells developed in the intraperitoneal cavity of mouse were collected in different time intervals. After washing with normal saline the cells were re-suspended in phosphate buffered saline. […] Number of Sarcoma-180 cells inoculated to each mouse was 1×10^6. The tumor bearing mice were treated with modified nano-methylglyoxal (present formulation) in normal saline through intravenous route to study the tumor growth inhibition by nano-methylglyoxal. Treatment started after 7 days of inoculation in mice intravenously with 50 μl nanoMG in solution (containing 5 μg methylglyoxal). Mice in the negative control group were similarly treated intravenously with normal saline and the positive control groups were treated intravenously with bare methylglyoxal (20 mg/kg body weight/day) in normal saline. Each group contained six mice. Each set of experiment was repeated four times. melatonin (0.25 mg/kg body weight/day), creatine (150 mg/kg body weight/day) and Ascorbic acid (50 mg/kg body weight/day) were fed orally to each mouse everyday. Treatment was given with single daily dose for consecutive 12 days. […] Treatment started after 7 days of inoculation in mice intravenously with 50 μl nanoMG in solution (containing 5 μg methylglyoxal). Treatment was continued for 20 doses (six doses per week) in 23 days. Melatonin (0.25 mg/kg body weight/day), creatine (150 mg/kg body weight/day) and Ascorbic acid (50 mg/kg body weight/day) were fed orally to each mouse. • d) Solid tumor bearing mice treated with nanoMG as described previously were sacrificed for the isolation of macrophages. Briefly, RPMI-1640 was injected in the peritoneal cavity of mouse and peritoneal macrophages were isolated and centrifuged and resuspended in RPMI-1640+10% FBS and used further for immunomodulatory studies. […] In the present invention, effect of modified nanomethylGlyoxal, against tumor in mice, have been studied. Briefly, Swiss albino female mice aged 4-6 weeks weighing 18-20 g were taken. Each group contained four mice. […]

The subject of a further assay is Mitochondrial Complex I. The following applies: cited from earlier work.
In assay [5] the test system is Sarcoma-180 cells. The note with it: sarcoma-180 cells injected concomitantly with Methylglyoxal; cited from earlier work.
Assay [6] has as its system Ehrlich ascites carcinoma (EAC) cells. In words: Tumor growth inhibition of EAC cells inoculated intraperitoneally in mice (Trypan Blue cell count). Format: in vivo. The protocol:
The Effect of Nano-Methylglyoxal on the Excessive Proliferation of Cancerous Cells in Mice was Investigated as Follows: • a) Mice bearing Ehrlich ascites carcinoma cells (No. of EAC cell inoculated each mouse=1×10^6) were treated intravenously with nano-methylglyoxal in normal saline to observe the effect of cell proliferation. Treatment started after 24 hrs, of inoculation in mice intravenously with three different doses of nanoMG in solution. In first group every day each mouse received 25 μl nanoMG solution (containing 2.5 μg methylglyoxal), in second group each mouse received 50 μl nanoMG solution (containing 5 μg methylglyoxal) and in third group each mouse received 100 μl nanoMG solution (containing 10 μg methylglyoxal). Mice in the negative control group were similarly treated intravenously with normal saline and the positive control groups were treated intravenously with bare methylglyoxal (20 mg/kg body weight/day) in normal saline. Each group contains six mice. Each set of experiment was repeated four times. Melatonin (0.25 mg/kg body weight/day), creatine (150 mg/kg body weight/day) and Ascorbic acid (50 mg/kg body weight/day) were fed orally to each mouse. Treatment was continued for consecutive 8 days (Table-5, Table-6). […]

Another assay concerns Sarcoma. In words: Sarcoma-bearing mice: Creatine content, CK activity and tumor size. The assay is classed as in vivo. The source says: We also investigated the status of Creatine and CK in a few post-operative tissue samples from human patients, and similar to the results of animal tissues, the Creatine content and CK activity were much reduced in both human Fibrosarcoma and Gastro-Intestinal Tract Malignancy, compared to healthy control tissues.

The test system of a further assay is L1236. The note with it: cited from earlier work.
Assay [7] relates to Ehrlich Ascites Carcinoma (EAC) cells. In words: Oral Melatonin on EAC cells implanted intra-peritoneally in female mice. Format: in vivo. The note with it: Melatonin 50 mg/kg body wt. An excerpt:
With these rationales, Melatonin has been applied to treat cancer in both animal and human in our laboratory and has shown significant improvement over the formulations without Melatonin. […] The effects of oral supplementation of Melatonin on growth of Ehrlich Ascites Carcinoma (EAC) cells implanted intra-peritoneally in female mice were studied in our lab. […] It has strong antioxidant properties and anticancer and onco-static action. Melatonin has potential anticancer activity whether given alone or in association with cancer chemotherapy. […] In this study, 30 patients with untreatable metastatic solid tumors were treated with daily 30 mg oral Melatonin in conjunction with low doses of antitumor cytokines. […] In addition Melatonin may have other biological effects, which could be useful in palliative therapy of Cancer.

Read-outs that look alike come from different tables or passages of the source.

For the compound `CC(=O)C=O` [Bare-methylglyoxal, Methylglyoxal], the Enzyme inhibition result in assay [1] (enzyme of malignant cells) was “inhibits”; in assay [1] (enzyme of normal cells), “no inhibitory effect”; with Mitochondrial Complex I (enzyme of malignant cells) it was “inhibits”; in the assay with Mitochondrial Complex I (enzyme of normal cells), “no inhibitory effect”. In addition, the “Sarcoma-180 + Bare-MG Volume of tumour (c.c.)” value in the assay with sarcoma-180 cells [2] (day 12) is on record as 1 ± 0.1 c.c; in the assay with sarcoma-180 cells [2] (day 16), 1.4 ± 0.05 c.c; with sarcoma-180 cells [2] (day 21) it was 2 ± 0.15 c.c; in the assay on sarcoma-180 cells [2] (day 26) it was 2 ± 0.17 c.c; in the assay on sarcoma-180 cells [2] (day 31), 2.73 ± 0.27 c.c. Moreover, the “Superoxide anion generation Production of reduced NBT” value with peritoneal macrophages [3] (normal mice) was 243 ± 2.82 µmol; with peritoneal macrophages [3] (sarcoma tumour bearing mice), 317.5 ± 10.60 µmol. In addition, the “Macrophage count increase with respect to untreated tumour bearing batch” value in the assay with peritoneal macrophages [4] (bare-MG treated mice (20 mg/kg/day iv)) is “two fold in bare-MG treated mice”. Moreover, the “Peritoneal macrophage Count (×10^6)” value in the assay on peritoneal macrophages [4] (normal mice) is on record as 10.88 ± 1.15 ×10^6; with peritoneal macrophages [4] (sarcoma tumour bearing mice), 12.91 ± 1.46 ×10^6. For the same compound, in the assay on Sarcoma-180 cells [5], the Tumor development result is given as “No tumor developed”. In addition, in assay [6] (Bare-methylglyoxal 20 mg/kg body weight/day iv, 8 consecutive doses from day 1, in million cells), the “No. of cells on day 9” value is given as 29 ± 2.9.
For the compound `CN(CC(=O)O)C(=N)N` [Creatine], the “Effect of Creatine administration on the effect of Methylglyoxal and Ascorbic Acid” value with Sarcoma is “significantly augmented”.
With `NC1=NCCN1CC(=O)O` [Cyclocreatine, cyclocreatine], in the assay on L1236, the Inhibition of proliferation entry was “nearly entirely”.
As for `COc1ccc2[nH]cc(CCNC(C)=O)c2c1` [Melatonin], in assay [6] (melatonin in combination with ascorbic acid and creatine, with modified NanoMG), the “Effect of introducing melatonin on tumor growth inhibition of EAC cells” value was 2. Efficacy is enhanced further when melatonin is introduced in combination with ascorbic acid and creatine for tumor growth inhibition of EAC cells in mice. In addition, in assay [7], the “Survival of the treated mice” value is listed as “increased the survival”; the “Viability and volume of Ehrlich Ascites Carcinoma cells” value was “reduced the viability and volume”.
